This note sets out measurements from publication PMC7221699, “Synthesis and Cytotoxic Analysis of Novel Myrtenyl Grafted Pseudo-Peptides Revealed Potential Candidates for Anticancer Therapy” (Molecules, 2020).

Molecules are shown by their SMILES.

In data set [1] the test system is human colon adenocarcinoma (HT-29) cells. The data set is described as follows: Sulforhodamine B (SRB) cell cytotoxicity assay, HT-29 cells. In kind it is cell-based. Particulars: HT29 cells. On the procedure:
(§1) […] The cell lines were expanded, cultured, and maintained at 37 °C in a humid atmosphere with 5% CO2 in modified Dulbecco’s medium (Thermo Fisher Scientific, Waltham, MA, USA), with 10% FBS (Thermo Fisher Scientific, Waltham, MA, USA) and 100 U/mL of the antibiotic mixture penicillin/streptomycin (Thermo Fisher Scientific, Waltham, MA, USA).
(§2) We evaluated the cytotoxicity effects of novel Myrtenal hybrids against on cells by the sulforhodamine B (SRB) assay. Initially, the cells were seeded in 96-well microplates at a density of 2 × 10^4 cells/well. All compounds were initially dissolved in 100% of methanol and prediluted to reduce methanol concentration to 1% or lower in culture medium and added to the cells at different concentrations for 24 h. Then, cells were fixed by adding 10% (w/v) trichloroacetic acid (TCA) (Winkler) in each well and were stained with 0.057% (w/v) Sulforhodamine B (SRB) (Sigma-Aldrich) in 1% (v/v) acetic acid (Winkler). The bound dye was dissolved in 10 mM Tris base (Sigma-Aldrich), and the absorbance was determined at 510 nm using a multiplate reader (Synergy 2, Biotek Instruments). Percentage cell viability was determined using the formula: […]. The absorbance from the wells of the negative control (1% methanol in culture medium) was considered as the 100% viability. EC50 values were determined by regression analysis (R^2 > 0.95) of the corresponding dose response curves of percentage of cell viability and concentration of the compounds. Emax, the maximum effect of the drug at the highest tested concentration were determined using an online calculator (http://www.grcalculator.org/). Emax lies between 1 and 0; a value of 0 corresponds to a fully cytotoxic response.

The test system of data set [2] is AGS, MCF-7 and HT-29 cells. The data set is described as follows: SRB cytotoxicity assay, summary over the three cancer cell lines. In kind it is cell-based. Particulars: Homo sapiens, MCF-7 and HT-29, 24 h, read-out: EC50 range over the cancer cell lines. The procedure: as §1
as §2, with “All compounds were initially dissolved in 100% of methanol and prediluted to reduce methanol concentration to 1% or lower in culture medium and added to the cells at different concentrations for 24 h. Then, cells were fixed by adding 10% (w/v) trichloroacetic acid (TCA) (Winkler) in each well and were stained with 0.057% (w/v) Sulforhodamine B (SRB) (Sigma-Aldrich) in 1% (v/v) acetic acid (Winkler).” left out, “Emax lies between 1 and 0; a value of 0 corresponds to a fully cytotoxic response.” left out

For data set [3], the system named is human dermal fibroblast (HDF) cells. The data set is described as follows: Sulforhodamine B (SRB) cell cytotoxicity assay, HDF non-cancer cells. In kind it is cell-based. Particulars: 60, 120 and 240 ng/mL, 24 h. The procedure:
as §1, §2

Data set [4] deals with human breast adenocarcinoma (MCF-7) cells. The data set is described as follows: Sulforhodamine B (SRB) cell cytotoxicity assay, MCF-7 cells. The class given is cell-based. The procedure: as §1, §2
For the next data set, the system named is primary CD4+ T cells. The data set is described as follows: Viability and cell count of activated CD4+ T lymphocytes per proliferation cycle (flow cytometry). The class given is cell-based, human. As to conditions: compounds added at EC25 48 h after activation, incubated four days. On the procedure: CD4+ T cells were first stained with a cell tracer dye, a fluorescent reagent that diffuses into cells and binds covalently to intracellular amines, and then with a Live/Dead dye that permeates into cells with damaged membranes, while live cells remain unstained. In addition, counting beads were added into each sample to calculate the exact number of cells per cell cycle (Figure 4A). Then, in order to induce proliferation, fluorescent-labelled CD4+ T cells were activated with anti-CD3/CD28 beads, which mimic physiological T cell receptor triggering and co-stimulation in T lymphocytes. After activation, a proportion of cells proliferated, while some stayed in a non-proliferative state. […] Myrtenyl derivatives were added after the second day of culture to evaluate their effect on non-proliferating CD4+ T cells at cycle 0 and 1 and in proliferating cells in cycle 2, 3, and 4. Live CD4+ T cells activated in the presence of five Myrtenyl derivatives were counted and results were normalized with the control sample per cell cycle.
CD4+ T cells were obtained from peripheral blood from healthy volunteers. Blood samples were diluted 1:2 with PBS before adding 50 μL/mL of RosettSep Human CD4+ T cell enrichment cocktail (STEM CELL) for 20 min at room temperature. After incubation, samples were diluted again 1:4 with PBS and CD4+ T cells were obtained directly from the mononuclear fraction obtained after Ficoll–Hypaque density gradient centrifugation. CD4+ T cells were washed twice, counted, and resuspended in PBS. CD4+ T cells were then stained with 1 μM Cell Trace Violet Cell Proliferation Kit (Invitrogen, Thermo Fisher Scientific, Waltham, MA, USA) for 20 min at 37 °C, protected from light. Unbound dye was quenched by adding cold FCS for 5 min at 4 °C. CD4+ T cells were washed two times and resuspended in X–VIVO (Gibco) with IL–2 (50 U/mL, ProLeukin). Cells (2 × 10^5) were activated for 48 h with CD3/CD28 Dynabeads (Invitrogen) prior to adding the compounds. After 48 h, compounds were added (EC25) and incubated for four days. To analyze proliferation and viability, cells were stained with Live/Dead fixable far red dead cell staining kit (Invitrogen) for 30 min at 4 °C and counting beads were added before acquisition. Cells were acquired on an LSRFortessa X20 (BD) within 24 h. Data were analyzed using FlowJo (Tree Star, Inc., Ashland, OR, USA).
(In flow cytometry, cells or beads pass a laser one at a time.)

Data set [5] has as its system human gastric adenocarcinoma (AGS) cells. The data set is described as follows: Sulforhodamine B (SRB) cell cytotoxicity assay, AGS cells. In kind it is cell-based. On the procedure: as §1, §2
The mark [6] stands for this setting: maximal drug effect on viability rate, 1 = no effect, 0 = fully cytotoxic.

Consider `CC1(C)[C@H]2CC=C(Cn3cc(CN(CC(=O)NC4CCCCC4)C(=O)C4=CC[C@H]5C[C@@H]4C5(C)C)nn3)[C@@H]1C2` [3d, (1R,5S)-N-[2-(cyclohexylamino)-2-oxoethyl]-N-({1-[((1R,5S)-6,6-dimethylbicyclo[3.1.1]hept-2-en-2-yl)methyl]-1H-1,2,3-triazol-4-yl}methyl)-6,6-dimethylbicyclo[3.1.1]hept-2-ene-2-carboxamide], for which the Emax in data set [1] (setting [6]) amounted to 0.1; in data set [4] (setting [6]), 0.1; in data set [5] (AGS cells, maximal drug effect on viability rate, 1 = no effect, 0 = fully cytotoxic) it was 0.1. Further, the concentration giving a half-maximal response (EC50) in data set [1] (Homo sapiens, HT-29, 24 h of drug treatment, SRB assay) was 33 nM; in data set [2], 22 to 33 nM; in data set [4] (Homo sapiens, MCF7, 24 h of drug treatment, SRB assay), 22 nM; in data set [5] (Homo sapiens, AGS cells, 24 h of drug treatment, SRB assay), 33 nM. Besides, the “effect on HDF viability (preliminary screen)” value in data set [3] is on record as “without affecting HDF viability”. Further, the “viability of non-proliferating CD4+ T cells at cycle 0” value with primary CD4+ T cells (cycle 0) was “did not reduced viability”. Further, the “viability of proliferating CD4+ T cells at cycle 4” value with primary CD4+ T cells (cycle 4) was “lowest capacity to reduce viability”. In data set [5] (60 ng/mL, 24 h), the “cytotoxicity against AGS cells at the lowest concentration” value is on record as “high cytotoxicity”.

For orientation: EC50 means the concentration giving half of the maximal effect.
